Data from patent publication US20140121235A1, “Method for Treating S6K-Overexpressing Cancers” (Rush University Medical Center, priority 2012, published 2014).

Experiments:
[1] = tested on: ribosomal protein S6^S235/S236 phosphorylation; assay: Western blot of S6 phosphorylation in A375 cells; type: cell-based; details: Homo sapiens, A-375; read-out: IC50 to inhibit S6 phosphorylation in cell culture
Procedure: (§1) A375 cells seeded in a 6-well plate were starved in DMEM medium containing 0.5% FBS for 2 hr and treated with the indicated concentration of A77 1726 or PLX 4720 (1 μM) for another 2 hr (A) or treated with A77 1726 (100 μM) for the indicated time (B & C). Cells were harvested and analyzed for protein phosphorylation by specific antibodies as indicated. Protein loading was monitored by stripping membrane and re-probing with antibodies against non-phosphorylated proteins. […] A375 cells seeded in a 6-well plate were starved in DMEM medium containing 05% FBS for 2 hr and treated with the indicated concentration of A77 1726 in the absence or presence of uridine (200 μM). Phosphorylated and total proteins were analyzed by Western blot as described above.
(§2) A375 cells seeded in 6-well plates were starved in DMEM medium containing 0.5% FBS for 2 hr and then pre-treated with vehicle (0.1% dimethyl sulfoxide), LY294002 (10 μM) (A), PPP (1 μM) (B), or the inhibitors of the MAP kinase pathway (PLX4720, 1 μM; U0126, 10 μM; PD98059, 10 μM) (C) for 1 hr. Cells were then treated with A77 1726 (100 μM) or rapamycin (20 nM) as indicated for 2 hr. Cells were harvested and analyzed for protein phosphorylation by specific antibodies as indicated. Protein loading was monitored by stripping membrane and re-probing with antibodies against non-phosphorylated proteins.
(§3) Cells grown in 6-well plates were harvested and lysed in NP-40 lysis buffer (50 mM Tris-HCI (pH 8.0), 150 mM NaCl, 1% NP-40, 5 mM EDTA, 10 μg/ml aprotinin, 10 μg/ml leupeptin, and 1 mM phenylmethylsulfonyl fluoride). After incubation on ice for 30 min, the cell lysates were prepared by spinning down at 4° C., 15,000 rpm for 15 min. After electrophoresis and transfer to Immobolin membrane, proteins of interest were probed with their specific antibodies, followed by horseradish peroxidase-conjugated goat anti-rabbit IgG and SuperSignal Western Pico enhanced chemiluminoscence substrate (Pierce Chemical Co., Rockford, Ill.).
(§4) The PI-3 and MAP kinase pathways play an important role in cell proliferation, differentiation, and cell cycle progress. Multiple genes in these two pathways are frequently mutated and have a commanding role in driving tumorigenesis and tumor cell proliferation (2; 3). […] Here we tested whether A77 1726 affected the activation of MAP and PI-3 kinase pathways. A375 cells grown in 6-well plates were starved in the media containing 0.5% FBS for 2 hr and then treated with the indicated concentration of A77 1726. […] We next explored the effect of A77 1726 in phosphorylation of the molecules in the PI-3 kinase pathway.

[2] = tested on: ERK1/2^T202/Y204 and MEK1/2^S217/S221 phosphorylation; assay: Western blot of MAP kinase pathway phosphorylation in A375 cells; type: cell-based
Procedure: as §1, §2, §3, §4

[3] = biological target: recombinant p70 S6 kinase (S6K1) (Homo sapiens, UniProt P23443); assay: In vitro p70 S6 kinase assay (ADP-Glo Kinase assay system); type: biochemical; details: 30 min pre-incubation, ATP 10 μM, 1 hr, read-out: IC50, inhibition of recombinant S6K1 activity
Chain of recombinant p70 S6 kinase (S6K1) (P23443 whole entry): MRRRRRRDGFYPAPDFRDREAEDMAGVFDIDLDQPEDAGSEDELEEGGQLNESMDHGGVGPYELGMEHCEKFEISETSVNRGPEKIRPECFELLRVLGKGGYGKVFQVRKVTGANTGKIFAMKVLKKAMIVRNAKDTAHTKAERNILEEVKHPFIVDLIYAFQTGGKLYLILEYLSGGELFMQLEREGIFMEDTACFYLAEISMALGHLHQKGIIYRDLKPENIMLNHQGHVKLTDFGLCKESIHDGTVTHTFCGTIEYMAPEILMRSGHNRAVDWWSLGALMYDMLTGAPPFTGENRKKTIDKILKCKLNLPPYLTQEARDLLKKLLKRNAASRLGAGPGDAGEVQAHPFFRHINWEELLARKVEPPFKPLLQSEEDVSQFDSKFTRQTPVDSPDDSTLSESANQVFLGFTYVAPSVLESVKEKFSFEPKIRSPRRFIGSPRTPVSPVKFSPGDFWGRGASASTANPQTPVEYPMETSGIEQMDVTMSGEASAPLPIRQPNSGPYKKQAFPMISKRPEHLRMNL
Procedure: Leflunomide and A77 1726 diluted at the final concentrations as indicated were pre-mixed with S6K1 for 30 min, followed by the addition of peptide substrate of S6K1 and incubation for 1 hr. S6K1 activity was measured by using a ADP-Glo™ system. The experiment was repeated with similar results. The data represents the mean±standard deviation from one experiment in triplicate.
The ability of lefiunomide and A77 1726 to inhibit p70 S6 kinase assay was conducted by using an ADP-Glo™ Kinase assay system (Promega Corporation, Madison, Wis.). Briefly, A77 1726 or leflunomide diluted in the kinase buffer was mixed with recombinant p70 S6 kinase (100 ng/reaction) and incubated at room temperature for 30 min. Peptide substrate of p70 S6 kinase (5 μg/reaction) and ATP (10 μM, final concentration) was added, with a total final volume of 25 μl. After incubation for 1 hr, ADP-Glo™ reagent (25 μl) was added to each reaction. After incubation for 40 min, kinase detection substrate (luciferin) (50 μl/reaction) was added. After incubation fix 30 min, luciferase activity was measured by reading in a luminescence plate reader. The experiment was conducted in triplicate and repeated once with similar results. The data from one experiment were presented as mean±standard deviation.

Raf-1 phosphorylation = assay: Western blot of Raf-1 phosphorylation in A375 cells; type: cell-based
Procedure: A375 cells seeded in a 6-well plate were starved in DMEM medium containing 0.5% FBS for 2 hr and treated with the indicated concentration of A77 1726 or PLX 4720 (1 μM) for another 2 hr (A) or treated with A77 1726 (100 μM) for the indicated time (B & C). Cells were harvested and analyzed for protein phosphorylation by specific antibodies as indicated. Protein loading was monitored by stripping membrane and re-probing with antibodies against non-phosphorylated proteins. (D) Uridine fails to reverse the effect of A77 1726 on the PI-3 and MAP kinase pathways. A375 cells seeded in a 6-well plate were starved in DMEM medium containing 05% FBS for 2 hr and treated with the indicated concentration of A77 1726 in the absence or presence of uridine (200 μM). Phosphorylated and total proteins were analyzed by Western blot as described above.
Cells grown in 6-well plates were harvested and lysed in NP-40 lysis buffer (50 mM Tris-HCI (pH 8.0), 150 mM NaCl, 1% NP-40, 5 mM EDTA, 10 μg/ml aprotinin, 10 μg/ml leupeptin, and 1 mM phenylmethylsulfonyl fluoride). After incubation on ice for 30 min, the cell lysates were prepared by spinning down at 4° C., 15,000 rpm for 15 min. […]

## Cc1oncc1C(=O)Nc1ccc(C(F)(F)F)cc1 [leflunomide]
[1]
  IC50: 50 to 75 µM
[2]; A375 cells starved in 0.5% FBS, A77 1726 or leflunomide at indicated concentrations, 2 hr
  effect on ERK1/2 and MEK phosphorylation: rapidly and potently induced
[2]; A375 cells, compared with A77 1726
  potency in inducing feedback activation of the MAP kinase pathway: slightly more potent than A77 1726
[3]
  IC50: ~55 µM
Raf-1 phosphorylation
  effect on Raf-1 phosphorylation: no increased Raf-1 phosphorylation
